Results published in US5574178A, “4,6-Di-t-butyl-dihydrobenzofuran-5-ol and its derivatives” (Chugai Seiyaku Kabushiki Kaisha, priority 1992, dated 1996).

Assays:
Type in all cases: biochemical
[1] = test system: xanthine oxidase (XOD)-hypoxanthine (HX) system (superoxide); test: Xanthine oxidase system (superoxide generating system); conditions: pH 7.4, 37° C.
Protocol: The test compounds were evaluated under the following conditions for their effect in a reaction due to a xanthine oxidase (XOD)-hypoxanthine (HX) system in aqueous solution.
Xanthine oxidase 0.1 U/ml
Hepes buffer solution (pH 7.4)
(§1) A reaction solution was prepared by mixing hypoxanthine and luminol in the Hepes buffer solution and stored in ice until use. After warming the reaction solution at 37° C. for about 10 min, the reaction was started by addition of the xanthine oxidase solution. A measurement was started right after the addition of xanthine oxidase and subsequent stirring; chemiluminescence intensity was normally measured right after the start of the reaction. In the experimental model, luminol-dependent chemiluminescence induced by superoxide generated by enzymatic reaction of xanthine oxidase was detected, thus enabling the measurement of the reactivity with superoxide.

[2] = target: lipid peroxidation due to the autoxidation of linoleic acid; test: Linoleic acid-MCLA system, Test Case 4; conditions: linoleic acid 10 mM, MCLA 2 μM, 1-butanol, 37° C.; read-out: 50% inhibition concentration
Protocol: The test compounds were evaluated for their inhibitory effect against lipid peroxidation due to the autoxidation of linoleic acid.
A reaction solution was prepared by mixing linoleic acid and MCLA (2-methyl-6-(p-methoxyphenyl)-3,7-dihydroimidazo[1,2-a]pyrazin-3-one) in 1-butanol and stored in ice until use. An amount of this reaction solution was sampled in a chemiluminescence measuring cell and, immediately thereafter, the intensity of chemiluminescence due to the autoxidation of linoleic acid was measured at 37° C. in a thermostatic bath. A normal chemiluminescence intensity measurement was conducted about 2-4 min later when the chemiluminescence substantially peaked.

[3] = test system: lactoperoxidase reaction system (singlet oxygen); test: Lactoperoxidase system (singlet oxygen system); conditions: pH 4.5, 37° C.
Protocol: The test compounds were evaluated under the following conditions for their effect against a lactoperoxidase reaction system.
Lactoperoxidase 10 μg/ml
Acetate buffer solution (pH 4.5)
as §1, with “hydrogen peroxide, sodium bromide” for “hypoxanthine”, “acetate” for “Hepes”, “lactoperoxidase” for “xanthine oxidase”, “was” for “was normally”, “singlet oxygen” for “superoxide”, “singlet oxygen.” for “superoxide.”

[4] = test system: Rabbit LDL; test: Amount of TBARS (Cu^2+-induced oxidation of rabbit LDL); conditions: 5 μM Cu^2+
Protocol: Rabbit LDL was prepared in accordance with the method of Havel et al. [Havel, R. J. et al., J. Clin. Invest., 34, (1955)]. After adding 5 μM of Cu^2+, the mixture was warmed until a thiobarbituric acid reactive substance (TBARS) was produced. The test compounds were evaluated for their anti-oxidative action with the amount of TBARS being used as an index. [formula]

Chemiluminescence intensity (% of control) ([1]; at 20 μM of compound)	Chemiluminescence intensity (% of control) ([1]; at 200 μM of compound)	Chemiluminescence intensity (% of control) ([3]; at 20 μM of compound)	Chemiluminescence intensity (% of control) ([3]; at 200 μM of compound)	Compound	IC50 [2] [µM]	TBARS produced (%) ([4]; at 10^-5 M of compound, 10 µM)	TBARS produced (%) ([4]; at 10^-6 M of compound, 1 µM)
55.8 % of control	17.5 % of control	86.2 % of control	0.8 % of control	CCC(C)c1cc2c(c(C(C)(C)C)c1O)CCO2 (stereo not drawn) [Comparison 7, reference compound]	7	–	–
41.8 % of control	26.1 % of control	94.5 % of control	56.6 % of control	CC(C)(C)c1cc2c(c(C(C)(C)C)c1O)CCO2 [Compound a, 4,6-Di-tert-Butyl-5-Hydroxy-2,3-Dihydrobenzofuran]	7	10.3	52.2
23.9 % of control	6.3 % of control	77.6 % of control	6.0 % of control	CC(C)(C)c1c(O)ccc2c1CCO2 [Comparison 1, reference compound]	62	–	–
31.9 % of control	24.0 % of control	105.8 % of control	8.1 % of control	CC1Cc2c(c(C(C)(C)C)cc(O)c2C(C)(C)C)O1 (stereo not drawn) [Comparison 6, reference compound]	19	–	–
21.9 % of control	8.2 % of control	95.3 % of control	4.5 % of control	CC(C)(C)c1cc(O)c(C(C)(C)C)c2c1OCC2 [Comparison 5, reference compound]	41	–	–
